The results in this text go back to patent US10562898B2, “Substituted benzenesulfonamides as inhibitors of alpha-4 beta-7 integrin activity” (EA PHARMA CO., LTD., priority 2016, dated 2020).

SMILES strings stand for the structures.

This assay has as its target T1, α4β7 integrin (Homo sapiens, UniProt P13612+P26010).
T1 construct: a cell line RPMI-8866, which is known to express α4β7 integrin; endogenous in cells; host or cells: RPMI-8866 (human B cell line)
T1 sequence (P13612 34-1032): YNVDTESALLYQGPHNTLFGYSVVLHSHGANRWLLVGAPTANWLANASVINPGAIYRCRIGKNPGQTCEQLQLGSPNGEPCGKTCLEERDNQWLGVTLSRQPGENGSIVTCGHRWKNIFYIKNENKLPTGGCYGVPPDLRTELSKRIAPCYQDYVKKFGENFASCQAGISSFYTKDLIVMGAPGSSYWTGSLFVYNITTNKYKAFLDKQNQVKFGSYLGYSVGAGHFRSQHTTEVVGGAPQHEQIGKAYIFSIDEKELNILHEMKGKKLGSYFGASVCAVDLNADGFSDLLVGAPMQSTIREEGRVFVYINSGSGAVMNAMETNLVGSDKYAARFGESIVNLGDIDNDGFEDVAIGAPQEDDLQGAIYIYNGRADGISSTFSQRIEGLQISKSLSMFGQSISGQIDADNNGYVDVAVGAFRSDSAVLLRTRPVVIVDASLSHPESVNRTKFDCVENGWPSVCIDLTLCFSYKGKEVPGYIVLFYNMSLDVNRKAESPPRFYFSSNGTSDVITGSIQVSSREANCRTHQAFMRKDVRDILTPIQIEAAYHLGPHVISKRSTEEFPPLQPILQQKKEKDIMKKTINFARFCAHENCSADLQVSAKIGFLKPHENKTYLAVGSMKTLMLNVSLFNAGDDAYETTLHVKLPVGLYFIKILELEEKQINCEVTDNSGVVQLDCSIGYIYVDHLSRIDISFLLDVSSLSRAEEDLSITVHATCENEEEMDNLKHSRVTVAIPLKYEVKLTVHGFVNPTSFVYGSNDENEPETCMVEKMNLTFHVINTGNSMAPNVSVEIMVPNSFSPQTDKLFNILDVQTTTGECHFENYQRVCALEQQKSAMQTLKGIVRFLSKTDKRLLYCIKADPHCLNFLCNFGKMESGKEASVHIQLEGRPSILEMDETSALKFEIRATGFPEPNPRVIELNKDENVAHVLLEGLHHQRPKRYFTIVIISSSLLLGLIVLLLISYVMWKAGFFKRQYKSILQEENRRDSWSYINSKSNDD
T1 sequence (P26010 20-798): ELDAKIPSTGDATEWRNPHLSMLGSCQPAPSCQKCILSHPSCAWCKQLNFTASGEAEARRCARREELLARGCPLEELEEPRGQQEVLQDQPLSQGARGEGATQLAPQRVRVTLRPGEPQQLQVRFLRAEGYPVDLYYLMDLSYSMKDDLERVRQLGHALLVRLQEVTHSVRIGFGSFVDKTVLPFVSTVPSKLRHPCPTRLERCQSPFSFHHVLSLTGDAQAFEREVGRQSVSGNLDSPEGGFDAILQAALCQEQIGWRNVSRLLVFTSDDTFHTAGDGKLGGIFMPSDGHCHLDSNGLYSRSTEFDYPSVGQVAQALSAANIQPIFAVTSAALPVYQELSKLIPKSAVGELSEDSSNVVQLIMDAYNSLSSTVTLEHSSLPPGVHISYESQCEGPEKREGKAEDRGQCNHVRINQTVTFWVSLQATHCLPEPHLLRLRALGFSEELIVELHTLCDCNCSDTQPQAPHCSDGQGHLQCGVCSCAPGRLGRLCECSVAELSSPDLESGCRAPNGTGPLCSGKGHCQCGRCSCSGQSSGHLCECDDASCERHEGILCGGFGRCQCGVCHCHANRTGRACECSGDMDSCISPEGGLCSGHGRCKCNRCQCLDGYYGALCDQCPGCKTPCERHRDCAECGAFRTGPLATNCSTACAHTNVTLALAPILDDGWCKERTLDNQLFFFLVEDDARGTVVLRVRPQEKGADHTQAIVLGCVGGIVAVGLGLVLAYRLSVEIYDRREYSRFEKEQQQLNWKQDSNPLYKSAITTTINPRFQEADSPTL
In words: MAdCAM-1/α4β7 integrin binding inhibitory activity evaluation test (RPMI-8866 cells binding to MAdCAM-1/Fc). The format is cell-based. To be noted: recombinant mouse MAdCAM-1/Fc, no serum. The protocol:
(2) MAdCAM-1/α4β7 Integrin Binding Inhibitory Activity Evaluation Test
Each test substance was measured in terms of an ability to inhibit the MAdCAM-1 binding of a human B cell line, namely, a cell line RPMI-8866, which is known to express α4β7 integrin.
A solution of recombinant mouse MAdCAM-1/Fc (R&D Systems, Inc.) (0.75 μg/mL) diluted with a buffer A (carbonate buffer, pH 9.6) was added in an amount of 50 μL/well to a 96-well microtiter plate, followed by incubation at 4° C. overnight. After the plate was washed with PBS once, 150 μL/well of Block Ace (Snow Brand Milk Products Co., Ltd.) was added, followed by incubation at room temperature for 2 hours. After removal, the plate was washed with PBS once.
Then, 100 μL of the RPMI-8866 cells (2×10^6 cells/mL) and 100 μL of the test substance at each of various concentrations diluted with a binding buffer (DMEM containing 40 mM HEPES, 0.2% BSA, and 4 mM MnCl2) were added on the plate coated with the MAdCAM-1/Fc (5×10^5 cells/well), followed by incubation at 30° C. for 15 to 60 minutes. After the cells were bound to the wells, the plate was washed with PBS to remove unbound cells. A buffer C (PBS containing 1.5% Triton X-100) in an amount 50 μL/well was added to the plate to lyse the bound RPMI-8866 cells. After 30 μL of a substrate buffer (Promega, CytoTox 96 Non-Radioactive Cytotoxicity Assay) was added to 30 μL of the cell lysate, a reaction was allowed to proceed at room temperature in the dark for 30 minutes. After 30 μL of a stop solution (Promega, CytoTox 96 Non-Radioactive Cytotoxicity Assay) was added to each, and then an absorbance at 490 nm was measured using a plate reader. The absorbance obtained here represents a detection result of an activity of lactate dehydrogenase (LDH) eluted in the supernatant of each well, that is, the absorbance is proportional to the number of RPMI-8866 cells bound to the MAdCAM-1 and thus remaining on the plate. The test was performed in duplicate. Provided that the absorbance of the well containing no test substance was 100%, a cell binding rate with the test substance at each of the various concentrations was figured out, and a concentration IC50 which brought about 50% binding inhibition was calculated.
A word on the IC50: it is the concentration at which inhibition is half-maximal. For the compound `Cc1cn(C)c(=O)n(-c2ccc(C[C@H](NC(=O)c3cc(F)c(NS(=O)(=O)c4ccc(NC(=O)C(C)(C)C(F)(F)F)cc4)cc3F)C(=O)O)cn2)c1=O` [Compound A58], the IC50 was 1.3 nM.

Consider `Cc1cn(C)c(=O)n(-c2ccc(C[C@H](NC(=O)c3cc(F)c(NS(=O)(=O)c4ccc(NC(=O)C(C)(C)CO)cc4)cc3F)C(=O)O)cn2)c1=O` [Compound A63], for which the IC50 was 2.4 nM.

For the compound `Cn1ccc(=O)n(-c2ccc(C[C@H](NC(=O)c3cc(F)c(NS(=O)(=O)c4ccc(NC(=O)C(C)(C)C)cc4)cc3F)C(=O)O)cc2)c1=O` [Compound A42], the IC50 was 0.77 nM. In the case of `Cn1c(C(F)(F)F)cc(=O)n(-c2ccc(C[C@H](NC(=O)c3cc(F)c(NS(=O)(=O)c4ccc(NC(=O)C(C)(C)C)cc4)cc3F)C(=O)O)cn2)c1=O` [Compound A66] it was 3.3 nM. To `CCC(CC)C(=O)Nc1ccc(S(=O)(=O)Nc2cc(F)c(C(=O)N[C@@H](Cc3ccc(-n4c(=O)ccn(C)c4=O)nc3)C(=O)O)cc2F)cc1` [Compound A61] belongs 6.9 nM. On to `Cc1cn(C)c(=O)n(-c2ccc(C[C@H](NC(=O)c3cc(F)c(NS(=O)(=O)c4ccc(NC(=O)C(C)(C)C)cc4)cc3F)C(=O)O)cn2)c1=O` [Compound A54], for which the IC50 was found to be 1.6 nM. Turning to `Cc1cn(C)c(=O)n(-c2ccc(C[C@H](NC(=O)c3cc(F)c(NS(=O)(=O)c4ccc(NC(=O)C5(C(F)(F)F)CC5)cc4)cc3F)C(=O)O)cn2)c1=O` [Compound A56], the half-maximal inhibitory concentration (IC50) was found to be 1.2 nM. Take `Cc1cc(=O)n(-c2ccc(C[C@H](NC(=O)c3cc(F)c(NS(=O)(=O)c4ccc(NC(=O)C(C)(C)C)cc4)cc3F)C(=O)O)cn2)c(=O)n1C` [Compound A45]: the IC50 stood at 1.6 nM. Consider `Cc1cn(C)c(=O)n(-c2ccc(C[C@H](NC(=O)c3cc(F)c(NS(=O)(=O)c4ccc5c(NC(=O)C(C)(C)C)c[nH]c5c4)cc3F)C(=O)O)cn2)c1=O` [Compound A74], for which the IC50 was found to be 7.8 nM. In the case of `Cn1c(=O)n(-c2ccc(C[C@H](NC(=O)c3cc(F)c(NS(=O)(=O)c4ccc(NC(=O)C(C)(C)C)cn4)cc3F)C(=O)O)cn2)c(=O)c2ccncc21` [Compound A31] it was 0.71 nM; in that of `Cn1c(=O)n(-c2ccc(C[C@H](NC(=O)c3cc(F)c(NS(=O)(=O)c4ccc(NC(=O)C(C)(C)C)cc4)cc3F)C(=O)O)cn2)c(=O)c2ccncc21` [Compound A26], 0.23 nM; in that of `Cc1c(C)n(C)c(=O)n(-c2ccc(C[C@H](NC(=O)c3cc(F)c(NS(=O)(=O)c4ccc(NC(=O)C(C)(C)C)nc4)cc3F)C(=O)O)cc2)c1=O` [Compound A25], 1.1 nM.

Consider `Cc1cn(C)c(=O)n(-c2ccc(C[C@H](NC(=O)c3cc(F)c(NS(=O)(=O)c4cc5cc(NC(=O)C(C)(C)C)ccc5[nH]4)cc3F)C(=O)O)cn2)c1=O` [Compound A76], for which the half-inhibitory concentration (IC50) worked out at 2 nM. Turning to `Cn1c(=O)n(-c2ccc(C[C@H](NC(=O)c3cc(F)c(NS(=O)(=O)c4ccc(NC(=O)C(C)(C)C)s4)cc3F)C(=O)O)cc2)c(=O)c2ccncc21` [Compound A9], the IC50 is 0.41 nM. As to `COC1(C(=O)Nc2ccc(S(=O)(=O)Nc3cc(F)c(C(=O)N[C@@H](Cc4ccc(-n5c(=O)c6ccncc6n(C)c5=O)cc4)C(=O)O)cc3F)cc2)CC1` [Compound A16], the IC50 is 0.52 nM. In the case of `Cc1c(C)n(C)c(=O)n(-c2ccc(C[C@H](NC(=O)c3cc(F)c(NS(=O)(=O)c4ccc(NC(=O)C5(C(F)(F)F)CC5)cc4)cc3F)C(=O)O)cc2)c1=O` [Compound A20], the IC50 came out at 0.25 nM. On to `Cn1c2c(c(=O)n(-c3ccc(C[C@H](NC(=O)c4cc(F)c(NS(=O)(=O)c5ccc(NC(=O)C(C)(C)C)cc5)cc4F)C(=O)O)cn3)c1=O)CCCC2` [Compound A52], for which the IC50 is 0.7 nM.

Consider `Cc1c(CO)c(=O)n(-c2ccc(C[C@H](NC(=O)c3cc(F)c(NS(=O)(=O)c4ccc(NC(=O)C(C)(C)C)cc4)cc3F)C(=O)O)cc2)c(=O)n1C` [Compound A51], for which the IC50 came out at 3.1 nM.

With `Cc1cc(=O)n(-c2ccc(C[C@H](NC(=O)c3cc(F)c(NS(=O)(=O)c4ccc(NC(=O)C(C)(C)C)cc4)cc3F)C(=O)O)nc2)c(=O)n1C` [Compound A72], the half-inhibitory concentration (IC50) is 1.8 nM. As for `Cc1cn(C)c(=O)n(-c2ccc(C[C@H](NC(=O)c3cc(F)c(NS(=O)(=O)c4ccc(NC(=O)C(C)(C)C)s4)cc3F)C(=O)O)cn2)c1=O` [Compound A73], the IC50 is 2.2 nM. Turning to `Cc1cn(C)c(=O)n(-c2ccc(C[C@H](NC(=O)c3cc(F)c(NS(=O)(=O)c4ccc(NC(=O)C5CCCC5)cc4)cc3F)C(=O)O)cn2)c1=O` [Compound A65], the half-inhibitory concentration (IC50) stood at 3.3 nM.

On to `CCC(CC)C(=O)Nc1ccc(S(=O)(=O)Nc2cc(F)c(C(=O)N[C@@H](Cc3ccc(-n4c(=O)c5ccncc5n(C)c4=O)cc3)C(=O)O)cc2F)cc1` [Compound A3], for which the IC50 worked out at 0.72 nM. In the case of `Cn1c(=O)n(-c2ccc(C[C@H](NC(=O)c3cc(F)c(NS(=O)(=O)c4ccc(NC(=O)C(C)(C)C)c(F)c4)cc3F)C(=O)O)cc2)c(=O)c2ccncc21` [Compound A12] it was 0.45 nM; in that of `Cn1c(=O)n(-c2ccc(C[C@H](NC(=O)c3cc(F)c(NS(=O)(=O)c4ccc(NC(=O)C(C)(C)CO)cc4)cc3F)C(=O)O)cc2)c(=O)c2ccncc21` [Compound A18], 0.36 nM.
